Reference: patent publication US9309199B2, “Inhibitors of catechol O-methyl transferase and their use in the treatment of psychotic disorders” (Merck Sharp & Dohme Corp., priority 2010, dated 2016)

target: T1, MB-COMT (Homo sapiens, UniProt P21964); assay: COMT inhibition, esculetin fluorescence or fluorescence polarization assay (MB-COMT); format: biochemical; details: purified human COMT Val158 variant, membrane-bound
T1 construct: 6xHis or 10xHis (C)
T1 sequence (P21964 1-271): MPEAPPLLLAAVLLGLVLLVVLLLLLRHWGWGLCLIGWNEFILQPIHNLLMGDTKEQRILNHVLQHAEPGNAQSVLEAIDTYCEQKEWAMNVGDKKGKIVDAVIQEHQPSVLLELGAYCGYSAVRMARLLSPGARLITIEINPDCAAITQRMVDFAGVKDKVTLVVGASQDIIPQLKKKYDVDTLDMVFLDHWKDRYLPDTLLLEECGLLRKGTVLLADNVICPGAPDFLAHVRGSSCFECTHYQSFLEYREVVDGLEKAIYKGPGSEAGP
Source text: The activity of the compounds in accordance with the present invention as COMT inhibitors may be readily determined without undue experimentation using a fluorescence or fluorescence polarization (FP) methodology that is well known in the art (Kurkela M et al., Anal Biochem (331) 2004, 198-200 and Graves, T L et al., Anal Biochem (373) 2008, 296-306).
The fluorescence assay was based on methylation of a substrate (6,7-dihydroxycoumarin or ‘esculetin’) by COMT to produce a highly fluorescent product (7-hydroxy-6-methoxycoumarin or scopoletin'). […] A 10 mM compound stock in DMSO was used to prepare 10 point 3-fold dilution series and 1 uL of appropriate dilution was plated into assay wells (black 96 well round bottom polystyrene plates from Costar; catalog #3792). […] The formation of product (scopoletin) was monitored over time by fluorescence (excitation 340 nm, emission 460 nm, no lag, 100 μs integration time, 5 flashes, top read) using a Tecan Safire^2 plate reader.

SMILES | IC50
Cn1cc(-c2ccc3ccccc3c2)cc(O)c1=O [Compound #1, 3-hydroxy-1-methyl-5-naphthalen-2-ylpyridin-2(1H)-one] | 179 nM
O=c1[nH]cc(-c2ccc(Cl)c(C(F)(F)F)c2)cc1O [Compound #2, 5-[4-chloro-3-(trifluoromethyl)-phenyl]-3-hydroxypyridin-2(1H)-one] | 31 nM
N#Cc1cccc(-c2c[nH]c(=O)c(O)c2)c1 [Compound #8, 3-(5-hydroxy-6-oxo-1,6-dihydropyridin-3-yl)benzonitrile] | 197 nM
Cn1cc(-c2ccc(Cl)cc2Cl)cc(O)c1=O [Example 1, 5-(2,4-Dichloro-phenyl)-3-hydroxy-1-methyl-1H-pyridin-2-one] | 392 nM
Cn1cc(-c2cccc(-c3ccccc3)c2)cc(O)c1=O [Example 4, 5-Biphenyl-3-yl-3-hydroxy-1-methylpyridin-2(1H)-one] | 118 nM
